Values after ≈ are worked out from the molar mass of the structure shown.
What was measured:
Type in all cases: functional
Candida albicans [1] = experiment: Antifungal activity against Candida albicans ATCC SC5314 assessed as fungal growth inhibition by CLSI based serial microbroth dilution method
Candida albicans [2] = experiment: Antifungal activity against Candida albicans CPCC400616 assessed as fungal growth inhibition by CLSI based serial microbroth dilution method
Candida tropicalis = experiment: Antifungal activity against Candida tropicalis CGMCC 2.3739 assessed as fungal growth inhibition by CLSI based serial microbroth dilution method
Cryptococcus neoformans = experiment: Antifungal activity against Cryptococcus neoformans CGMCC 2.3161 assessed as fungal growth inhibition by CLSI based serial microbroth dilution method
Candida parapsilosis = experiment: Antifungal activity against Candida parapsilosis GIM 2.190 assessed as fungal growth inhibition by CLSI based serial microbroth dilution method; details: Lodderomyces parapsilosis
Nakaseomyces glabratus = experiment: Antifungal activity against Candida glabrata clinical isolate assessed as fungal growth inhibition by CLSI based serial microbroth dilution method
Pichia kudriavzevii = experiment: Antifungal activity against Candida krusei GIM 2.1 assessed as fungal growth inhibition by CLSI based serial microbroth dilution method
Aspergillus fumigatus = experiment: Antifungal activity against Aspergillus fumigatus CGMCC 3.7795 assessed as fungal growth inhibition by CLSI based serial microbroth dilution method

| Structure (SMILES) | MIC (Candida albicans [1]) [µg/mL] | MIC (Candida albicans [2]) [µg/mL] | MIC (Candida tropicalis) [µg/mL] | MIC (Cryptococcus neoformans) [µg/mL] | MIC (Candida parapsilosis) [µg/mL] | MIC (Nakaseomyces glabratus) [µg/mL] | MIC (Pichia kudriavzevii) [µg/mL] | MIC (Aspergillus fumigatus) [µg/mL] |
| --- | --- | --- | --- | --- | --- | --- | --- | --- |
| Fc1cccc(F)c1CC1(Cn2ccnn2)COC(c2ccc(-c3ccsc3)cc2)=N1 (configuration not stated) | 16 (≈ 36.7 µM) | 16 (≈ 36.7 µM) | > 64 | > 64 | > 64 | > 64 | > 64 | > 64 |
| Brc1ccc(C2=NC(Cc3ccccc3)(Cn3ccnc3)CO2)cc1 (configuration not stated) | > 64 | > 64 | > 64 | 4 (≈ 10.1 µM) | > 64 | > 64 | > 64 | > 64 |
| Fc1cc(F)cc(CC2(Cn3ccnc3)COC(c3ccc(-c4ccsc4)cc3)=N2)c1 (configuration not stated) | > 64 | > 64 | > 64 | > 64 | > 64 | > 64 | > 64 | > 64 |
| c1ccc(CC2(Cn3ccnc3)COC(c3cc4ccccc4s3)=N2)cc1 (configuration not stated) | > 64 | > 64 | > 64 | 2 (≈ 5.36 µM) | > 64 | > 64 | > 64 | > 64 |
| c1ccc(CC2(Cn3ccnc3)COC(c3ccc(-c4ccoc4)cc3)=N2)cc1 (configuration not stated) | 0.5 (≈ 1.3 µM) | > 64 | > 64 | 4 (≈ 10.4 µM) | > 64 | > 64 | > 64 | > 64 |
| Clc1ccc(CC2(Cn3ccnc3)COC(c3ccc(-c4ccsc4)cc3)=N2)cc1 (configuration not stated) | > 64 | > 64 | > 64 | > 64 | > 64 | > 64 | > 64 | > 64 |
| Cc1cccc(CC2(Cn3ccnc3)COC(c3ccc(-c4ccsc4)cc3)=N2)c1 (configuration not stated) | > 64 | > 64 | > 64 | > 64 | > 64 | > 64 | > 64 | > 64 |
| c1ccc(CC2(Cn3ccnc3)COC(c3ccc(-c4cncnc4)cc3)=N2)cc1 (configuration not stated) | > 64 | > 64 | > 64 | > 64 | > 64 | > 64 | > 64 | > 64 |
| FC(F)(F)c1ccc(CC2(Cn3ccnc3)COC(c3ccc(-c4ccsc4)cc3)=N2)cc1 (configuration not stated) | > 64 | > 64 | > 64 | > 64 | > 64 | > 64 | > 64 | > 64 |

— ChEMBL document CHEMBL5154783, “Design, synthesis, and evaluation of novel 3-thiophene derivatives as potent fungistatic and fungicidal reagents based on a conformational restriction strategy” (Eur J Med Chem, 2022)
